ChEMBL document CHEMBL1811782, “The 2010 Philip S. Portoghese Medicinal Chemistry Lectureship: addressing the "core issue" in the design of estrogen receptor ligands” (J Med Chem, 2011)

Experiments:
[1] = Relative binding affinity to estrogen receptor relative to estradiol
[2] = molecular target: Estrogen receptor beta (Homo sapiens) (UniProt Q92731); assay: Ratio of estradiol IC50 to compound IC50 for ERbeta receptor by relative binding affinity assay
[3] = molecular target: T1, Estrogen receptor (Homo sapiens) (UniProt P03372); assay: Ratio of estradiol IC50 to compound IC50 for ERalpha receptor by relative binding affinity assay
T1 sequence (whole entry): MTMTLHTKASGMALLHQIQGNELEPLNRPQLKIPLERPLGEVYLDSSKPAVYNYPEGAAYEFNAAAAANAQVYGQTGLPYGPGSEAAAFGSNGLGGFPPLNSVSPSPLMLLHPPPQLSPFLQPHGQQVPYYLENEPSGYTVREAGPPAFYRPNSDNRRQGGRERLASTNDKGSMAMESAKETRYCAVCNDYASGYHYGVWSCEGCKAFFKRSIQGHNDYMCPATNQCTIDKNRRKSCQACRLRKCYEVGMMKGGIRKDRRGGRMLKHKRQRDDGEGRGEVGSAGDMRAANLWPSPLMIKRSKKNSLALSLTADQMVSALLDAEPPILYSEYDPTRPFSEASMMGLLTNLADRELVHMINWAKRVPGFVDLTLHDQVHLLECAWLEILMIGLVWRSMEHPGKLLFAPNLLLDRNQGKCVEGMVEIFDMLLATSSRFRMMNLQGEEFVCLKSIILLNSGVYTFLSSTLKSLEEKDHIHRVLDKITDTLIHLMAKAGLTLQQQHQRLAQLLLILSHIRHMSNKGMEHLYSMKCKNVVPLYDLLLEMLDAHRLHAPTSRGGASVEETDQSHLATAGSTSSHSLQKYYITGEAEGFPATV

Sequence of Estrogen receptor beta (Homo sapiens) (Q92731 whole entry): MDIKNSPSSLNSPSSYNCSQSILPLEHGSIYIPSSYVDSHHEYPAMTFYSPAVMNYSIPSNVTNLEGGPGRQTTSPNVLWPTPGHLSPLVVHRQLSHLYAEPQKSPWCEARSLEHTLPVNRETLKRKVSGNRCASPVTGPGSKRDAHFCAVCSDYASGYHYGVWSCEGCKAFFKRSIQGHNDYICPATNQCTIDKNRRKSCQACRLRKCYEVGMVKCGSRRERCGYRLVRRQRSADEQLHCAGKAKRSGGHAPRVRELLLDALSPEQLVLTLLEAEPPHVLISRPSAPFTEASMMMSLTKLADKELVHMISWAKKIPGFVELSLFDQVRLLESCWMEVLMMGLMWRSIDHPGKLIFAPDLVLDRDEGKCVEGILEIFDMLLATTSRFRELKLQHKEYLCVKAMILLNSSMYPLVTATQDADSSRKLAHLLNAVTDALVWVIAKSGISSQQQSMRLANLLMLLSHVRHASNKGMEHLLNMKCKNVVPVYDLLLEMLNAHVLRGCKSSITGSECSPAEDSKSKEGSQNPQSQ

| Structure (SMILES) | RBA [1] | Ratio IC50 [2] | Ratio IC50 [3] |
| --- | --- | --- | --- |
| CCc1c(-c2ccc(O)cc2)nc(-c2ccccc2)n1-c1ccc(O)cc1 | 0.37% |  |  |
| CCc1c(-c2ccc(O)cc2)nn(-c2ccc(O)cc2)c1-c1ccc(O)cc1 | 19% |  |  |
| Oc1ccc(-c2cc(-c3ccc(O)cc3)[nH]n2)cc1 | 0.009% |  |  |
| CCCCCN(B(c1c(C)cc(C)cc1C)c1c(C)cc(C)cc1C)c1ccc(O)cc1 |  | 0.12 | 0.16 |
| Cc1cc(C)c(B(Nc2ccc(O)cc2)c2c(C)cc(C)cc2C)c(C)c1 |  | 0.18 | 0.013 |
| CCc1c(-c2ccc(O)cc2)nn(-c2ccccc2)c1-c1ccc(O)cc1 | 14% |  |  |
| CCn1c(-c2ccc(O)cc2)nc(-c2ccc(O)cc2)c1-c1ccc(O)cc1 | 0.38% |  |  |
| Cc1cc(C)c(B(c2c(C)cc(C)cc2C)N(CC(F)(F)F)c2ccc(O)cc2)c(C)c1 |  | 1.3 | 2.2 |
| Cc1cccc(C)c1B(c1c(C)cccc1C)N(CC(F)(F)F)c1ccc(O)cc1 |  | 5.8 | 10 |
| CCN(B(c1c(C)cc(C)cc1C)c1c(C)cc(C)cc1C)c1ccc(O)cc1 |  | 1.1 | 1.3 |
| Oc1ccc(-c2cc(-c3ccc(O)cc3)n(-c3ccccc3)n2)cc1 | 0.03% |  |  |
| CCn1c(-c2ccc(O)cc2)nc(-c2ccccc2)c1-c1ccc(O)cc1 | 0.25% |  |  |
| Cc1cccc(C)c1B(c1c(C)cccc1C)N(C)c1ccc(O)cc1 |  | 16 | 23 |
| Cc1cc(C)c(B(c2c(C)cc(C)cc2C)N(C)c2ccc(O)cc2)c(C)c1 |  | 3.1 | 1.3 |
| CCc1c(-c2ccc(O)cc2)n[nH]c1-c1ccc(O)cc1 | 0.02% |  |  |
